Assay results published in the METLIN SMRT retention time set (Domingo-Almenara et al. 2019).

Experiment: gradient 5% acetonitrile 3 min, to 50% in 2 min, to 85% in 15 min, held 3 min, 100 µL/min
Settings: column: Zorbax Extend-C18 2.1 x 50 mm; eluents: water / acetonitrile, 0.1% formic acid
Procedure, shortened: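 Mixtures of ~100 pure standards were chromatographed on a Zorbax Extend-C18 column (2.1 × 50 mm, 1.8 μm) at 100 μL/min using water and acetonitrile, each with 0.1% formic acid. Detection used a quadrupole time-of-flight mass spectrometer in positive and negative ionization mode, and data collection spanned 3 months. Retention time was obtained from adduct peaks picked computationally and each checked manually.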

RP-LC retention time [s]	SMILES
939	Cc1cc(-c2nnc(-c3ccc(F)cc3)o2)c(C)n1CC(=O)NCc1ccc(F)cc1F
1070	Cc1nc2cc(-c3noc(-c4cc(F)ccc4F)n3)ccc2o1
610	COc1ncccc1CNC(=O)Cc1ccsc1
906	Cc1ccc(-c2noc(C(=O)N3CCOCC3)n2)cc1S(=O)(=O)N1CCN(c2ncccn2)CC1
768	Cn1nc(-c2nc(C3CC3)no2)c2c1CCN(C(=O)Nc1ccc(F)cc1)C2
869	CSc1cccc(NC(=O)CN2C(=O)C3CCCCN3c3ccc(C(=O)N4CCCC4)cc32)c1 (stereo not given)
578	Cc1cn(C)c(CC(=O)NCCN2CCCCC2)c1C(=O)O
774	COc1ccc(NC(=O)N2CCC(CC(=O)N3CCCCC3)CC2)cc1Cl
914	Cc1ccc(NC(=O)COc2cc(C)nc(N3CCN(c4ccccc4)CC3)n2)c(C)c1
588	Cc1cc(NC(=O)CSc2nnc(-c3c(C)nc4sccn34)n2C)no1
660	Cc1ccc(CNC(=O)CCC2CCN(c3cc(NC4CC4)ncn3)CC2)o1
1250	CCn1nccc1-c1cccc(-c2noc(-c3ccc(C)s3)n2)c1
877	O=c1ccn(-c2ccc(F)c(F)c2)nc1-c1nc(-c2ccc3c(c2)OCO3)no1
792	O=C1[C@H]2CN(Cc3ccccc3F)C[C@H]2C(=O)N1Cc1ccc2c(c1)OCO2
893	CCC(=O)Nc1cc2c(cc1Sc1ccc(C)cc1)n(C)c(=O)n2C
639	COc1ccc(-c2cn3c(CC(=O)N4CCN(c5ncccn5)CC4)csc3n2)cc1OC
630	O=C(NCc1cccnc1)C1CCN(Cc2cc3ccccc3n2Cc2ccccc2Cl)CC1
904	Cn1ncc2c3ccccc3n(CC(=O)NCCc3ccco3)c2c1=O
999	CCn1cc(-c2nc(C)c(C(=O)Nc3ccc(F)cc3)s2)c2cccnc21
1170	CCc1sc(NC(=O)c2cc3c([nH]c2=O)CCCC3=O)nc1-c1ccc2c(c1)CCCC2
810	COc1ccc(CNC(=O)c2nc3ccccn3c2-c2ccsc2)cc1
962	CCOc1ccccc1-c1noc(CN2N=NC3C(=O)N(c4cc(OC)cc(OC)c4)C(=O)C32)n1 (stereo not given)
671	CN1CCC2(CC1)CN(C(=O)CCc1nc3ccccc3s1)Cc1ccccc1O2

RP-LC retention time [s]	SMILES
574	Cc1noc(C)c1CN1CCN(C(=O)c2nc3ccccc3s2)CC1
757	Cc1noc(C)c1S(=O)(=O)N1CC(n2cc(C(=O)NCC3CC3)nn2)C1
806	CCN1c2ccc(C)cc2C(=O)NC12CCN(C(=O)c1ccccc1F)CC2
578	O=C(NCCCN1CCCC1=O)C(=O)Nc1nccs1
565	Cc1ccnc(Nc2nc(CC(=O)N3CCN(S(C)(=O)=O)CC3)cs2)c1
763	Cc1cccc(NC(=O)C2CC(=O)N(c3ccc4c(c3)CCN4C(=O)C3CC3)C2)c1C (stereo not given)
606	COC(=O)C(NC(=O)N1CCCn2nc(-c3ccncc3)cc2C1)c1ccccc1 (stereo not given)
828	CC(C(=O)O)c1ccc(N2Cc3ccccc3C2=O)cc1 (stereo not given)
494	CCNC(=O)N1CCCC(Cc2nncn2C(C)C)C1 (stereo not given)
591	CC(C)NC(=O)N1CCCC(c2cccc(C(=O)NCCN3CCOCC3)c2)C1 (stereo not given)
996	COc1cc(-c2nc(Cn3ccn4nc(-c5ccc(F)cc5)cc4c3=O)c(C)o2)cc(OC)c1OC
694	CSc1cccc(NC(=O)N2CCN(c3cnn4c(C5CC5)nnc4c3)CC2)c1
571	NC(=O)C1CCN(Cc2cc(-c3ccc(F)cc3)n[nH]2)CC1
636	Cc1ccc(C(=O)N(CCc2cscn2)Cc2cccnc2)cc1C
739	CCc1cccc(NC(=O)N(C)CC2CCOC2)c1 (stereo not given)
771	CCc1ccc(Nc2nc(C(=O)N3CCOCC3)nc3ccccc23)cc1
749	Cc1ccc(NC(=O)C2CCN(C(=O)C3Sc4ccccc4NC3=O)CC2)cc1 (stereo not given)
1060	O=S(=O)(Nc1ccc(F)cc1)c1cccnc1Nc1ccc(F)cc1
704	COc1ccc(-n2ccn3c(CCC(=O)NCCc4c[nH]c5ccccc45)nnc3c2=O)cc1
861	Cc1oc(C2CCN(C(=O)C3CCN(S(=O)(=O)N4CCC(C)CC4)CC3)CC2)nc1C(=O)N1CCCC1
672	CC(=O)N1CCc2ccccc2C1C(=O)NC(C)C (stereo not given)
682	O=C(c1ccccc1[N+](=O)[O-])N1CCN(Cc2nc(-c3ccco3)cs2)CC1
603	COc1ccc(CNC(=O)Cn2c(N)nc(C)cc2=O)cc1

RP-LC retention time [s]	SMILES
614	CCC(=O)NCc1csc(C2CCN(C(=O)C3CCC3)CC2)n1
685	O=C(Cc1nnc2cc(-c3nc(C4CC4)no3)ccn12)N1CCCCCC1
873	CCC1CN(C(=O)N2CCC(C(=O)NCCCOC(C)C)CC2)c2cc(C)ccc2O1 (stereo not given)
699	Cc1nc(-c2cc(S(=O)(=O)NCCCN3CCC(C)CC3)c(C)s2)sc1C
670	COC(=O)c1cc(N2CCN(C)CC2)nc2c(C)cccc12
563	c1ccc(N2CCN(c3c4c(nc5ncnn35)CCC4)CC2)nc1
762	Cc1cccc(NC(=O)CN2C(=O)CCS(=O)(=O)c3ccccc32)c1
959	CCCn1c(=O)c(N2CCC(NC(=O)NCc3cccc(F)c3)CC2)nc2ccccc21
800	COc1cccc(C(=O)N2CCc3c(c(-c4nc(C5CC5)no4)nn3C)C2)c1
961	COc1ccc(NC(=O)C2CN(S(=O)(=O)C3CC3)CC23CCCCC3)c(OC)c1 (stereo not given)
1200	CCCCc1ccc(NC(=O)Cn2nc3cc(C)nc(-c4ccc(Cl)cc4)n3c2=O)cc1
635	CCN1CCCC1CNC(=O)Cn1nc(C)n2nc(-c3ccccc3)cc2c1=O (stereo not given)
674	O=C(Nc1c(-c2ccc(F)cc2)nc2ccccn12)c1cccc(F)c1
838	CCC1Oc2ccc(S(=O)(=O)N3CCC(C(=O)NC4CCCCC4)CC3)cc2NC1=O (stereo not given)
610	Cc1[nH]c(C(=O)N2CCC(CC(=O)NCCCN3CCCC(C)C3)CC2)c(C)c1C (stereo not given)
1020	Cn1c(=O)n(CC(=O)Nc2ccccc2Cl)c(=O)c2cnc(-c3ccccc3)nc21
690	CC(C)(C)C(O)CCNC(=O)Nc1ccc2c(c1)OCO2 (stereo not given)
677	CC(=O)Nc1ccc(NC(=O)c2ccc3nc(-c4ccc(Cl)cc4)cn3c2)cc1
1030	Cc1cc(NS(=O)(=O)c2ccc(-c3c(C)noc3C)cc2)ccc1Br
605	O=C(Cn1cnc2ccccc21)NCCCn1ccc2ccccc21
533	Cc1nc(-c2ccncc2)nc2c1CCC(=O)N2CCN1CCCC1
1230	CCn1ncc(NC(=O)COc2cccc(C)c2C)c(N2CCCCC2)c1=O
743	CCOC(=O)CNC(=O)NC1CCN(C2=NS(=O)(=O)C(c3ccc(C)cc3)=C2C)CC1

RP-LC retention time [s]	SMILES
951	CCCn1cc(S(=O)(=O)NCc2ccc(C)cc2)c2cccnc21
843	COc1cccc(-c2ccc3nc(N4CCC(C(=O)N5CCOCC5)CC4)sc3n2)c1
572	Cc1ncoc1C(=O)N1CCOc2ccc(N(C)C)cc2C1
794	Cc1noc([C@@H]2CN(C(=O)c3occc3C)C[C@H]2COCC2CC2)n1
1130	CCCCn1c(=O)c2ccccc2n(Cc2nc(-c3ccc4c(c3)OCO4)no2)c1=O
639	Cc1cc(=O)n(CC(=O)Nc2ccc(N(C)C)cc2)c(-c2ccccc2)n1
1070	O=C(Nc1nc(-c2ccccc2)cs1)C(=O)c1c[nH]c2ccccc12
690	Cc1oc(-c2ccc(C(=O)NCCN3CCOCC3)cc2)nc1CN1CCc2ccccc21
659	CCc1nn2c(CNC(=O)c3cc(Cl)ccc3OC)c(C)nc2s1
844	CN(Cc1ccco1)C(=O)c1c2c(nc3ccccc13)C(=O)N(C1CCCCC1)C2
589	Cc1nn(CCCC(=O)N2CCN(c3ccccn3)CC2)c(=O)c2cc3occc3n12
800	CCCn1ccc2sc(C)c(C(=O)NCC(C)C)c2c1=O
855	Cc1noc(C)c1C(=O)N1CCCC1c1ccc(Cl)cc1 (stereo not given)
883	COc1cccc(NC(=O)C2CCN(S(=O)(=O)c3cc(-c4noc(C)n4)cs3)CC2)c1
734	COc1ccc(NC(=O)Cn2nc3nc(N4CCCC(C)C4)ccn3c2=O)cc1 (stereo not given)
702	CN(C)c1nc2cc(C(=O)NCC3CC3)sc2n1-c1ccccc1
634	CN(C)C(=O)c1n[nH]c2c1CN(C(=O)c1ccc(Br)cc1)CC2
863	CCCNC(=O)N1CCCC1c1nc(-c2ccccc2C)no1 (stereo not given)
896	CCn1ccc2oc(C)c(C(=O)N3CCN(c4cccc(Cl)c4)CC3)c2c1=O
772	Cc1cc(NC(=O)Cc2cc(-c3ccccc3F)on2)no1

SMILES	RP-LC retention time [s]
COc1ccc(C(=O)c2c(C)n(CCN3CCOCC3)c3ccccc23)cc1	780
